In patent US20110173718A1, “HERBICIDE TOLERANT PLANTS” (SYNGENTA CROP PROTECTION, INC., priority 2008, published 2011):
Each block holds one molecule with its values, some of them ahead of it.

Experiments:
weeds [1] = test: Glasshouse weed control, HST inhibitors alone and with A22, pre-emergence; assay type: in vivo; conditions: 14 DAT; for pest or weed control at 15.625 g/ha / pest or weed control at 62.5 g/ha / pest or weed control at 250 g/ha: 336 h
Protocol: (§1) In a further test, the results of which are depicted in tables 18 and 19, weed seeds are planted out in trays containing 50% peat/50% John Innes no. 3 soil and grown in the glass house at 24-27 C day; 18-21 C night and approximately a 15 h photoperiod. Humidity is ˜65% and light levels at bench level are up to 2 mmol/m^2. Again all spray chemicals are dissolved in 0.2% X77 surfactant and sprayed from a boom on a track sprayer moving at 2 mph with the nozzle set about 2 inches above the plant tops. The spray volume is […]. Sprays are carried out both pre-emergence and post-emergence over small plants at about 7-12 d post-emergence. Plants are assessed at 14 DAT with herbicidal damage scored on a scale from 0 to 100%. The HPPD inhibiting herbicide is compound A22 (4-hydroxy-3-[[2-(2-methoxyethoxy)methyl]-6-(trifluoromethyl)-3-pyridinylicarbonyl]-bicyclo[3.2.1]oct-3-en-2-one) which is sprayed at 2 g/ha both alone and in mixture with various HST herbicides. Results and spray rates are depicted in Tables 18 and 19. Again the Colby formula has been used to calculate synergy scores observed following treatment with the mixture based on the results obtained with the single components alone. Positive synergy is observed between the HPPD herbicide and a wide variety of HST inhibitor herbicides applied both pre and postemergence across a variety of weeds.

weeds [2] = test: Glasshouse weed control, HST inhibitors alone and with A22, post-emergence; assay type: in vivo; conditions: 14 DAT, single replicate; for pest or weed control at 15.625 g/ha / pest or weed control at 62.5 g/ha / pest or weed control at 250 g/ha: 336 h, read-out: % control score, Obs
Protocol: as §1

Arabidopsis HST = molecular target: T1, Arabidopsis HST (Arabidopsis thaliana, UniProt Q1ACB3); test: HST total extraction (non TLC) assay, recombinant Arabidopsis HST from insect cells; assay type: biochemical
T1 construct: GST (factor Xa cleavage site) (N); made in house; host or cells: Sf9 insect cells (baculovirus, pAcG3X), membrane fraction
T1 sequence (Q1ACB3 70-386): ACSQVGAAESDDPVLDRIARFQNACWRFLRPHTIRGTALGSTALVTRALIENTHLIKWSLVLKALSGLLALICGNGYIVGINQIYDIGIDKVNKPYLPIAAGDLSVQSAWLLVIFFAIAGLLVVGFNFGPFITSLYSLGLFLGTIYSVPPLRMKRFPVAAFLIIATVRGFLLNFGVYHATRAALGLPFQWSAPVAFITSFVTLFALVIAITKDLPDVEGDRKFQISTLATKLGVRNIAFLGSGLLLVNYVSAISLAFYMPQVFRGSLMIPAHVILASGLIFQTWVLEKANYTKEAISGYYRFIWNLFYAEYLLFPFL

SMILES: C#Cn1c(=O)c(-c2c(F)ccc(F)c2Cl)c(O)c2nccnc21 [Compound 2.18]
BRAPL Obs, % control score (weeds [1]; BRAPL, HST inhibitor rate 15.625 g/ha): 0%
BRAPL Obs, % control score (weeds [1]; BRAPL, HST inhibitor rate 62.5 g/ha): 10%
BRAPL Obs, % control score (weeds [1]; BRAPL, HST inhibitor rate 250 g/ha): 40%
DIGSA Obs, % control score (weeds [1]; DIGSA, HST inhibitor rate 15.625 g/ha): 0%
DIGSA Obs, % control score (weeds [1]; DIGSA, HST inhibitor rate 62.5 g/ha): 0%
DIGSA Obs, % control score (weeds [1]; DIGSA, HST inhibitor rate 250 g/ha): 0%
ECHCG Obs, % control score (weeds [1]; ECHCG, HST inhibitor rate 15.625 g/ha): 0%
ECHCG Obs, % control score (weeds [1]; ECHCG, HST inhibitor rate 62.5 g/ha): 20%
ECHCG Obs, % control score (weeds [1]; ECHCG, HST inhibitor rate 250 g/ha): 20%
PANMI Obs, % control score (weeds [1]; PANMI, HST inhibitor rate 15.625 g/ha): 0%
PANMI Obs, % control score (weeds [1]; PANMI, HST inhibitor rate 62.5 g/ha): 0%
PANMI Obs, % control score (weeds [1]; PANMI, HST inhibitor rate 250 g/ha): 50%
SETFA Obs, % control score (weeds [1]; SETFA, HST inhibitor rate 15.625 g/ha): 0%
SETFA Obs, % control score (weeds [1]; SETFA, HST inhibitor rate 62.5 g/ha): 20%
SETFA Obs, % control score (weeds [1]; SETFA, HST inhibitor rate 250 g/ha): 25%
SIDSP Obs, % control score (weeds [1]; SIDSP, HST inhibitor rate 15.625 g/ha): 0%
SIDSP Obs, % control score (weeds [1]; SIDSP, HST inhibitor rate 62.5 g/ha): 30%
SIDSP Obs, % control score (weeds [1]; SIDSP, HST inhibitor rate 250 g/ha): 30%
% control score, Obs (weeds [2]; BRAPL, 15.625 g/ha alone): 5%
% control score, Obs (weeds [2]; BRAPL, 62.5 g/ha alone): 60%
% control score, Obs (weeds [2]; BRAPL, 250 g/ha alone): 80%
% control score, Obs (weeds [2]; DIGSA, 15.625 g/ha alone): 1%
% control score, Obs (weeds [2]; DIGSA, 62.5 g/ha alone): 30%
% control score, Obs (weeds [2]; DIGSA, 250 g/ha alone): 50%
% control score, Obs (weeds [2]; ECHCG, 15.625 g/ha alone): 2%
% control score, Obs (weeds [2]; ECHCG, 62.5 g/ha alone): 40%
% control score, Obs (weeds [2]; ECHCG, 250 g/ha alone): 70%
% control score, Obs (weeds [2]; PANMI, 15.625 g/ha alone): 10%
% control score, Obs (weeds [2]; PANMI, 62.5 g/ha alone): 65%
% control score, Obs (weeds [2]; PANMI, 250 g/ha alone): 70%
% control score, Obs (weeds [2]; SETFA, 15.625 g/ha alone): 10%
% control score, Obs (weeds [2]; SETFA, 62.5 g/ha alone): 60%
% control score, Obs (weeds [2]; SETFA, 250 g/ha alone): 85%
% control score, Obs (weeds [2]; SIDSP, 15.625 g/ha alone): 15%
% control score, Obs (weeds [2]; SIDSP, 62.5 g/ha alone): 60%
% control score, Obs (weeds [2]; SIDSP, 250 g/ha alone): 70%
Estimated IC50 (ppm) (Arabidopsis HST): 6 ppm

Estimated IC50 (ppm) (Arabidopsis HST): 6 ppm
SMILES: O=c1c(-c2cc(Cl)ccc2C(F)(F)F)c(O)c2nccnc2n1CC(F)F [Compound 2.19]
pest or weed control at 15.625 g/ha (weeds [1]; BRAPL, HST inhibitor rate 15.625 g/ha, read-out: BRAPL Obs, % control score): 0%
pest or weed control at 62.5 g/ha (weeds [1]; BRAPL, HST inhibitor rate 62.5 g/ha, read-out: BRAPL Obs, % control score): 10%
pest or weed control at 250 g/ha (weeds [1]; BRAPL, HST inhibitor rate 250 g/ha, read-out: BRAPL Obs, % control score): 40%
pest or weed control at 15.625 g/ha (weeds [1]; PANMI, HST inhibitor rate 15.625 g/ha, read-out: PANMI Obs, % control score): 0%
pest or weed control at 62.5 g/ha (weeds [1]; PANMI, HST inhibitor rate 62.5 g/ha, read-out: PANMI Obs, % control score): 0%
pest or weed control at 250 g/ha (weeds [1]; PANMI, HST inhibitor rate 250 g/ha, read-out: PANMI Obs, % control score): 60%
pest or weed control at 15.625 g/ha (weeds [1]; SIDSP, HST inhibitor rate 15.625 g/ha, read-out: SIDSP Obs, % control score): 0%
pest or weed control at 62.5 g/ha (weeds [1]; SIDSP, HST inhibitor rate 62.5 g/ha, read-out: SIDSP Obs, % control score): 2%
pest or weed control at 250 g/ha (weeds [1]; SIDSP, HST inhibitor rate 250 g/ha, read-out: SIDSP Obs, % control score): 10%
pest or weed control at 15.625 g/ha (weeds [1]; Digitaria sanguinalis, DIGSA, HST inhibitor rate 15.625 g/ha, read-out: DIGSA Obs, % control score): 0%
pest or weed control at 62.5 g/ha (weeds [1]; Digitaria sanguinalis, DIGSA, HST inhibitor rate 62.5 g/ha, read-out: DIGSA Obs, % control score): 0%
pest or weed control at 250 g/ha (weeds [1]; Digitaria sanguinalis, DIGSA, HST inhibitor rate 250 g/ha, read-out: DIGSA Obs, % control score): 20%
pest or weed control at 15.625 g/ha (weeds [1]; Echinochloa crus-galli, ECHCG, HST inhibitor rate 15.625 g/ha, read-out: ECHCG Obs, % control score): 0%
pest or weed control at 62.5 g/ha (weeds [1]; Echinochloa crus-galli, ECHCG, HST inhibitor rate 62.5 g/ha, read-out: ECHCG Obs, % control score): 50%
pest or weed control at 250 g/ha (weeds [1]; Echinochloa crus-galli, ECHCG, HST inhibitor rate 250 g/ha, read-out: ECHCG Obs, % control score): 90%
pest or weed control at 15.625 g/ha (weeds [1]; Setaria faberi, SETFA, HST inhibitor rate 15.625 g/ha, read-out: SETFA Obs, % control score): 0%
pest or weed control at 62.5 g/ha (weeds [1]; Setaria faberi, SETFA, HST inhibitor rate 62.5 g/ha, read-out: SETFA Obs, % control score): 5%
pest or weed control at 250 g/ha (weeds [1]; Setaria faberi, SETFA, HST inhibitor rate 250 g/ha, read-out: SETFA Obs, % control score): 60%
pest or weed control at 15.625 g/ha (weeds [2]; BRAPL, 15.625 g/ha alone): 20%
pest or weed control at 62.5 g/ha (weeds [2]; BRAPL, 62.5 g/ha alone): 70%
pest or weed control at 250 g/ha (weeds [2]; BRAPL, 250 g/ha alone): 80%
pest or weed control at 15.625 g/ha (weeds [2]; PANMI, 15.625 g/ha alone): 40%
pest or weed control at 62.5 g/ha (weeds [2]; PANMI, 62.5 g/ha alone): 70%
pest or weed control at 250 g/ha (weeds [2]; PANMI, 250 g/ha alone): 85%
pest or weed control at 15.625 g/ha (weeds [2]; SIDSP, 15.625 g/ha alone): 15%
pest or weed control at 62.5 g/ha (weeds [2]; SIDSP, 62.5 g/ha alone): 30%
pest or weed control at 250 g/ha (weeds [2]; SIDSP, 250 g/ha alone): 50%
pest or weed control at 15.625 g/ha (weeds [2]; Digitaria sanguinalis, DIGSA, 15.625 g/ha alone): 30%
pest or weed control at 62.5 g/ha (weeds [2]; Digitaria sanguinalis, DIGSA, 62.5 g/ha alone): 50%
pest or weed control at 250 g/ha (weeds [2]; Digitaria sanguinalis, DIGSA, 250 g/ha alone): 70%
pest or weed control at 15.625 g/ha (weeds [2]; Echinochloa crus-galli, ECHCG, 15.625 g/ha alone): 30%
pest or weed control at 62.5 g/ha (weeds [2]; Echinochloa crus-galli, ECHCG, 62.5 g/ha alone): 45%
pest or weed control at 250 g/ha (weeds [2]; Echinochloa crus-galli, ECHCG, 250 g/ha alone): 75%
pest or weed control at 15.625 g/ha (weeds [2]; Setaria faberi, SETFA, 15.625 g/ha alone): 30%
pest or weed control at 62.5 g/ha (weeds [2]; Setaria faberi, SETFA, 62.5 g/ha alone): 60%
pest or weed control at 250 g/ha (weeds [2]; Setaria faberi, SETFA, 250 g/ha alone): 80%
